This is an account of results in US20220175931A1, “OSMOTIC PRESSURE REGULATOR FOR PERITONEAL DIALYSATE CONTAINING D-ALLOSE AND/OR D-ALLULOSE” (NATIONAL UNIVERSITY CORPORATION KAGAWA UNIVERSITY, priority 2019, published 2022).

SMILES strings stand for the structures. Values after ≈ are worked out from the molar mass of the structure shown. “Also recorded” adds a separate entry of the source. Read-outs that look alike come from different tables or passages of the source. Where only a bound is given, the exact number is not on record here.

For one experiment, the system named is E. coli. The experiment can be described thus: MIC test, agar plate dilution method. Format: cell-based, Escherichia coli. As to the method: (§1) In accordance with the agar plate dilution method of the Japanese Society of Chemotherapy (1981), the minimum inhibitory concentration of a sample was determined.
(§2) Agar plates containing a sample at predetermined concentrations were smeared with a test bacterial suspension and were incubated, and then the minimum concentration at which bacterial growth was inhibited was determined as the minimum inhibitory concentration.
(§3) A 10-fold diluted solution of a sample was prepared with purified water and was added to an agar medium at a 1/10 volume.
(§4) From the upper limit concentration, the concentration was determined by serial 2-fold dilution to about 100 μg/ml.
(§5) (1) A 70% solution was prepared (14 g was diluted in a 20-ml measuring flask).
(§6) (2) The 70% solution was diluted by 2-fold dilution. Seven to eight steps.
(§7) (3) A 1/9 volume of each solution was added to an agar medium, and the mixture was poured in a petri dish and solidified (the sample concentration was 7% or more in the agar).
(§8) A liquid culture medium containing bacteria was incubated for 16 to 20 hours, and a prepared culture medium having a bacterial concentration of about 10^6/ml was used.

In experiment [1] the test system is normal rats (SD rats). The experiment can be described thus: Blood glucose level after intraperitoneal administration of PDF-based dialysate, normal rat models, Test Example 2. Type of experiment: in vivo. As to conditions: PDF-based solutions. As to the method:
Next, a peritoneal dialysis fluid (PDF) was prepared, solutions containing glucose in a constant total amount of (0.432 g) were prepared, and D-allose was added to the solution at a predetermined ratio to give the following two peritoneal dialysates having a sugar concentration of 4% by weight and an osmotic pressure of 500 mOsm/L.
As shown in the protocol in FIG. 7, normal rats (6-week-old male SD rats, a weight of 155 to 175 g/body) were fasted for 24 hours, then the weights and fasting blood glucose levels were determined, and the rats were randomly separated into two groups. As the administration solutions, a solution containing only glucose at a concentration of 4% and a solution having a sugar concentration of 4% in which D-allose was contained at 10% and glucose was contained at 90% were prepared, and each osmotic pressure was determined.
(§9) For the normal rats, blood samples were collected from the tail veins, and the blood glucose (blood sugar) levels were determined by using a commercially available blood glucose meter.
FIG. 8 show the test result of blood glucose level of the two groups of a group of the solution containing only glucose at a concentration of 4% and a group of the solution having a sugar concentration of 4% in which D-allose was contained at 10% and glucose was contained at 90%.

The subject of the next experiment is test bacteria. The experiment can be described thus: MIC test, summary statements for the test bacteria as a whole. Format: cell-based. As to the method: as §1, §2
Drug concentration 128 μg/ml grown bacteria A+ B− C−
Drug concentration 64 μg/ml grown bacteria A+ B+ C−
Drug concentration 32 μg/ml grown bacteria A+ B+ C+

The next experiment concerns Corynebacterium. Put plainly: MIC test, agar plate dilution method. Format: cell-based, Corynebacterium striatum. As to the method:
as §1, §2, §3, §4, §5, §6, §7, §8

In the next experiment the test system is MRSA. Put plainly: MIC test, agar plate dilution method. Format: cell-based, Staphylococcus aureus (MRSA). As to the method: as §1, §2, §3, §4, §5, §6, §7, §8
Experiment [2] deals with diabetic model rats (SDT fatty rats). The experiment can be described thus: Blood glucose level after intraperitoneal administration of PDF-based dialysate, diabetic model rats, Test Example 2. Type of experiment: in vivo, rat. The settings on record: PDF-based solutions. As to the method:
As shown in the protocol in FIG. 9, 35- to 42-week-old male SDT fatty rats (a weight of 380 to 490 g) as diabetic model rats were fasted for 24 hours, then the weights and fasting blood glucose levels were determined, and the rats were randomly separated into two groups. As the administration solutions, the original solution was changed to PDF, and a solution containing only glucose as the sugar at a concentration of 4%, a solution having a sugar concentration of 4% in which D-allose was contained at 10% and glucose was contained at 90% were prepared, and each osmotic pressure of the two solutions was determined.
FIG. 10 show the test result of blood glucose level of the two groups of a group of the solution containing only glucose at a concentration of 4% and a group of the solution having a sugar concentration of 4% in which D-allose was contained at 10% and glucose was contained at 90%.
The diabetic model rats had more weights and higher fasting blood glucose levels than those of the normal rats. Blood samples were difficult to collect from the tails of the diabetic rats and thus were collected from the jugular vein, and the blood glucose levels were determined by using the same blood glucose meter as above. The model rats had diabetes, and thus the blood glucose level increase was slow as compared with the normal rats.

Experiment [3] has the same test system. Put plainly: Blood glucose level after intraperitoneal administration of peritoneal dialysate, diabetic model rats, Test Example 1. Type of experiment: in vivo, rat. As to the method:
As shown in the protocol in FIG. 4, 12- to 13-week-old male SDT fatty rats (a weight of 360 to 460 g) as diabetic model rats were fasted for 24 hours, then the weights and fasting blood glucose levels were determined, and the rats were randomly separated into two groups. As the administration solutions, a solution containing only glucose at a concentration of 4%, a solution having a sugar concentration of 4% in which D-allose was contained at 10% and glucose was contained at 90% were prepared, and each osmotic pressure of the two solutions was determined.
The diabetic model rats had more weights and higher fasting blood glucose levels than those of the normal rats. Blood samples were difficult to collect from the tails of the diabetic rats and thus were collected from the jugular vein, and blood glucose levels were determined by using the same blood glucose meter as above. The model rats had diabetes, and thus the blood glucose level increase was slow as compared with the normal rats.

For experiment [4], the system named is Staphylococcus epidermidis. Put plainly: MIC test, agar plate dilution method. Format: cell-based. As to the method: as §1, §2, §3, §4, §5, §6, §7, §8
A further experiment concerns Pseudomonas aeruginosa. Put plainly: MIC test, agar plate dilution method. Format: cell-based. As to the method: as §1, §2, §3, §4, §5, §6, §7, §8
In another experiment the test system is Enterococci. The experiment can be described thus: MIC test, agar plate dilution method. Format: cell-based, Enterococcus faecalis. As to the method:
as §1, §2, §3, §4, §5, §6, §7, §8

A further experiment concerns Staphylococcus aureus. The experiment can be described thus: MIC test, agar plate dilution method. Format: cell-based, Staphylococcus aureus subsp. (MSSA). The method, then:
as §1, §2, §3, §4, §5, §6, §7, §8

For experiment [5], the system named is normal rats (SD rats). Put plainly: Blood glucose level after intraperitoneal administration of peritoneal dialysate, normal rat models, Test Example 1. Type of experiment: in vivo. The method, then: As shown in the protocol in FIG. 1, normal rats (6-week-old male SD rats, a weight of 155 to 170 g/body) were fasted for 24 hours, then the weights and fasting blood glucose levels were determined, and the rats were randomly separated into four groups.
As the administration solutions, a solution containing only glucose at a concentration of 4%, a solution having a sugar concentration of 4% in which D-allose was contained at 5% and glucose was contained at 95%, a solution having a sugar concentration of 4% in which D-allose was contained at 10% and glucose was contained at 90%, and a solution having a sugar concentration of 4% in which D-allose was contained at 25% were prepared, and each osmotic pressure of the four solutions was determined.
as §9
The results were subjected to Tukey-Kramer test by using an analysis software, JMP, and no significant difference was observed.

A further experiment relates to male SD rats. Put plainly: Blood glucose level after intraperitoneal administration of D-allulose dialysate, normal rats, Test Example 3. Type of experiment: in vivo, rat. The settings on record: PDF-based, vs control group. An excerpt:
The number of dialysis patients due to end-stage renal failure has been increasing; diabetic nephropathy is the main basic disease of end-stage renal failure; peritoneal dialysis patients can work during the day and has high QOL; peritoneal dialysis uses an osmotic pressure difference by glucose to remove water and toxins; and glucose in a peritoneal dialysate is absorbed through the peritoneum into the body to increase the blood glucose level, and this may worsen prognosis of a dialysis patient with diabetes. Considering the above circumstances, Kagawa University is only the organization capable of producing all rare sugars in the world and can research the rare sugar optimum for an intended dialysate.
The test example of D-allulose includes a substitution example and an addition example. In the substitution example, D-allose in FIG. 7 was substituted with D-allulose.
To male SD rats, a control solution as a solution in which a peritoneal dialysis fluid (PDF) was mixed with glucose, a 10% substitution solution as a solution in which 10% (by weight) of glucose to be mixed was substituted with D-allulose, or a 10% load solution as a solution in which D-allulose was added to the control solution in an amount corresponding to 10% by weight of glucose was intraperitoneally administered in the same volume, and blood glucose levels were determined over time.

[6] abbreviates: Escherichia coli, read-out: MIC.
[7] abbreviates: Staphylococcus aureus, read-out: MIC.
[8] abbreviates: intraperitoneal, 0, 2, 4, and 6 hours.
Setting [9] is: Enterococcus faecalis, read-out: MIC.
The mark [10] stands for this setting: summary of results, drug concentration 128, 64, 32 μg/ml, bacterium not named.

`O=C[C@H](O)[C@H](O)[C@H](O)[C@H](O)CO` [Sample 5), D-allose]: the MIC was above 70 mg/mL with E. coli (setting [6]); 64 µg/mL (≈ 0.355 mM) against test bacteria; above 70 mg/mL in the experiment on Corynebacterium (read-out: MIC); above 70 mg/mL with MRSA (setting [7]); 70 mg/mL (≈ 389 mM) in experiment [4] (read-out: MIC); above 70 mg/mL with Pseudomonas aeruginosa (read-out: MIC). For the same compound, the minimum inhibitory concentration (MIC) in the experiment on Enterococci (setting [9]) and in the experiment on Staphylococcus aureus (read-out: MIC) was above 70 mg/mL throughout. In addition, the “blood glucose level increase” value (in the experiment with normal rats (SD rats) [1]; in experiment [2] (setting [8]); in experiment [3] (setting [8])) was “suppressed” each time. In addition, the “AUC of blood glucose level” value in experiment [2] (t-test) is listed as “suppressive effect on the blood glucose level increase with a significant difference”; in [3] (intraperitoneal, t-test), “suppressive effect on the blood glucose level increase with a significant difference”; in the experiment on normal rats (SD rats) [5] (Tukey-Kramer test), “significant declining trend”. Moreover, the “blood glucose level increase (time course)” value with normal rats (SD rats) [5] (fasted 24 hours, vs glucose-only solution) was “increase suppressive effect with a significant difference; also recorded: suppressed”.
On to `O=C(CO)[C@H](O)[C@H](O)[C@H](O)CO` [Sample 3), D-allulose], for which the minimal inhibitory concentration (MIC) is above 70 mg/mL against E. coli; above 128 µg/mL against test bacteria (setting [10]); above 70 mg/mL with Corynebacterium; above 70 mg/mL against MRSA; above 70 mg/mL in [4]; above 70 mg/mL in the experiment on Pseudomonas aeruginosa. In addition, the MIC in the experiment with Enterococci and in the experiment on Staphylococcus aureus was above 70 mg/mL in each case. In addition, the “blood glucose level increase (BS)” value in the experiment on male SD rats is listed as “significantly suppressed”.
With `O=C[C@H](O)[C@@H](O)[C@H](O)[C@H](O)CO` [Sample 1), D-glucose], the minimum inhibitory concentration (MIC) (in the experiment with E. coli (setting [6]); with Corynebacterium (read-out: MIC); with MRSA (setting [7]); in experiment [4] (read-out: MIC); with Pseudomonas aeruginosa (read-out: MIC); with Enterococci (setting [9])) was above 70 mg/mL throughout. In the experiment on Staphylococcus aureus (read-out: MIC), the minimum inhibitory concentration (MIC) was above 70 mg/mL.
`O=C(CO)[C@@H](O)[C@H](O)[C@H](O)CO` [Sample 2), D-Fructose]: the MIC (in the experiment on E. coli (setting [6]); in the experiment on Corynebacterium (read-out: MIC); with MRSA (setting [7]); in experiment [4] (read-out: MIC); in the experiment with Pseudomonas aeruginosa (read-out: MIC); in the experiment on Enterococci (setting [9])) was above 70 mg/mL in each case. For the same compound, in the experiment with Staphylococcus aureus (read-out: MIC), the MIC is above 70 mg/mL.
In the case of `O=C(CO)[C@@H](O)[C@@H](O)[C@@H](O)CO` [Sample 4), L-allulose], the MIC against E. coli was above 70 mg/mL; against test bacteria (setting [10]) it was 128 µg/mL (≈ 0.71 mM); in the experiment on Corynebacterium, above 70 mg/mL; against MRSA, above 70 mg/mL; in experiment [4], above 70 mg/mL; in the experiment with Pseudomonas aeruginosa, above 70 mg/mL. Besides, the minimal inhibitory concentration (MIC) with Enterococci and against Staphylococcus aureus was above 70 mg/mL in each case.

By MIC is commonly meant the lowest concentration that inhibits growth of the organism.
